Holding throughout (format): biochemical
Experiment [1] has as its target T1, thrombin (Homo sapiens, UniProt P00734).
T1 construct: FXa (5 nM) and thrombin (5 nM)
Kind of experiment: Determination of selectivity: thrombin inhibition (chromogenic substrate GPR). The settings on record: fold selectivity for FXIIa over thrombin (human); category. In a few lines: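 Thrombin (5 nM) preincubated with increasing compound concentrations (top 500 μM, 5% DMSO) 10 min at 37 °C in 50 mM Tris, 137 mM NaCl pH 7.4, then GPR chromogenic substrate at its KM. pNA release read kinetically at 405 nm for 3 h at 37 °C. IC50 from initial rates, converted to Ki via Cheng–Prusoff.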

Experiment [2] has as its target T2, FXIIa (Homo sapiens, UniProt P00748).
T2 construct: FXIIa alpha
T2 sequence (P00748 373-615 limits assumed): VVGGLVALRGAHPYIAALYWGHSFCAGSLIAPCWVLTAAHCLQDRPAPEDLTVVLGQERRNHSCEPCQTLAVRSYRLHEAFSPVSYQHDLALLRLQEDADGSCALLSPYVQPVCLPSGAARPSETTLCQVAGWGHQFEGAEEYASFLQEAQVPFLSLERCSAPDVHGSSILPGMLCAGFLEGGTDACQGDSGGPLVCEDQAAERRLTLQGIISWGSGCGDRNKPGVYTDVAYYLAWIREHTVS
T2 sequence (P00748 20-372 partner limits assumed): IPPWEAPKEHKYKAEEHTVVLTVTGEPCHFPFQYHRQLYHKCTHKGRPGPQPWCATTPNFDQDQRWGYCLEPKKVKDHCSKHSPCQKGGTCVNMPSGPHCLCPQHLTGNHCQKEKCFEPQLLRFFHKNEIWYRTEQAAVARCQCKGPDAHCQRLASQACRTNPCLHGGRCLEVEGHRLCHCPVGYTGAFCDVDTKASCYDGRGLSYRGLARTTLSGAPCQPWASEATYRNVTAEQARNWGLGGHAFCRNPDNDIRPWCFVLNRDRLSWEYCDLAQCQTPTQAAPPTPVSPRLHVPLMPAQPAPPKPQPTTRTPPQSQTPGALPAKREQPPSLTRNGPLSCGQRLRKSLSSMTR
Kind of experiment: Determination of Factor XIIa inhibition (chromogenic substrate S-2302). The settings on record: human FXIIa alpha, Ki category. In a few lines: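 Compound preincubated with 10 nM FXIIa for 10 min at 37° C in 50 mM Tris, 137 mM NaCl, pH 7.4, 5% DMSO, top concentration 500 μM; S-2302 added at Km. pNA release followed at 405 nm for 3 h; IC50 from initial rates, converted to Ki via Ki = IC50/(1+[S]/Km).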

The target of experiment [3] is FXa (Homo sapiens, UniProt P00742). Nature of the experiment: Determination of selectivity: FXa inhibition (chromogenic substrate S2765). The settings on record: fold selectivity for FXIIa over FXa (human); category. The method, boiled down: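 FXa (5 nM) preincubated with increasing compound (top 500 μM) for 10 mins at 37° C in 50 mM Tris, 137 mM NaCl pH 7.4, 5% DMSO, then S2765 added at its KM. Absorbance at 405 nm followed kinetically for 3 hours; IC50 from initial rates, converted to Ki by Cheng-Prusoff.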
Sequence of FXa (P00742 235-488 limits assumed): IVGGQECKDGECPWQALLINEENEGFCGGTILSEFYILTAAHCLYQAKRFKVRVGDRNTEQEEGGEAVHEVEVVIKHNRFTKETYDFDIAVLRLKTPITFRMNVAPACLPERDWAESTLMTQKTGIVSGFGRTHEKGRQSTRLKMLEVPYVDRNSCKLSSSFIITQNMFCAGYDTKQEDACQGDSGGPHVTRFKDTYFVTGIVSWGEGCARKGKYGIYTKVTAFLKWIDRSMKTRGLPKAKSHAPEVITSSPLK
Sequence of FXa (P00742 41-179 partner limits assumed): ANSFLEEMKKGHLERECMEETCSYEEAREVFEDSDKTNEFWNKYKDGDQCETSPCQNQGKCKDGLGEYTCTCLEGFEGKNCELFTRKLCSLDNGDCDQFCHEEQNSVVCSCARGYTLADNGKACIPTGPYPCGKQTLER

The structures appear in SMILES notation. Where only a bound is given, the exact number is not on record here.

Turning to `Cc1ccc(C=C2C[C@@H](C(=O)NCc3ccc4c(cnn4C)c3)N(C(=O)[C@@H]3NCCC[C@@H]3C(=O)N3CCCC3)C2)cc1` (single isomer, unassigned) [Example M05843], the “Thrombin (human)/FXIIa alpha (human)” value in experiment [1] was “+++ (fold selectivity values greater than 100)”. In addition, in experiment [2], the Ki lay within 200 to 800 nM. The “FXa (human)/FXIIa alpha (human)” value in experiment [3] is on record as “∘∘∘”.

Regarding `CO[C@H]1CCN(CCN(C)C(=O)[C@H]2CCCN[C@H]2C(=O)N2C[C@H](Cc3ccc(C)cc3)C[C@H]2C(=O)NCc2ccc3c(cnn3C)c2)C1` [Example M06128, (2R,3S)-N-(2-((S)-3-methoxypyrrolidin-1-yl)ethyl)-N-methyl-2-((2S,4R)-2-(((1-methyl-1H-indazol-5-yl)methyl)carbamoyl)-4-(4-methylbenzyl)pyrrolidine-1-carbonyl)piperidine-3-carboxamide], the “Thrombin (human)/FXIIa alpha (human)” value in experiment [1] was “+++ (fold selectivity values greater than 100)”. Besides, in experiment [2], the Ki is below 200 nM. Besides, the “FXa (human)/FXIIa alpha (human)” value in experiment [3] is given as “∘∘∘”.

On to `Cc1ccc(C[C@@H]2C[C@@H](C(=O)NCc3ccc4c(cnn4C)c3)N(C(=O)[C@@H]3NCCC[C@@H]3C(=O)N3CCCC3)C2)cc1` [Example M05675, (2S,4R)-N-((1-methyl-1H-indazol-5-yl)methyl)-4-(4-methylbenzyl)-1-((2R,3S)-3-(pyrrolidine-1-carbonyl)piperidine-2-carbonyl)pyrrolidine-2-carboxamide], for which, in experiment [1], the “Thrombin (human)/FXIIa alpha (human)” value was “+++ (fold selectivity values greater than 100)”. This molecule had an inhibition constant Ki in experiment [2] below 200 nM. For the same molecule, the “FXa (human)/FXIIa alpha (human)” value in experiment [3] is listed as “∘∘∘”.

For the molecule `Cc1ccc(C[C@@H]2C[C@@H](C(=O)NCc3ccc4c(cnn4C)c3)N(C(=O)[C@@H]3NCCC[C@@H]3C(=O)N(C)CCN3CC[C@H](F)C3)C2)cc1` [Example M06109, (2R,3S)-N-(2-((S)-3-fluoropyrrolidin-1-yl)ethyl)-N-methyl-2-((2S,4R)-2-(((1-methyl-1H-indazol-5-yl)methyl)carbamoyl)-4-(4-methylbenzyl)pyrrolidine-1-carbonyl)piperidine-3-carboxamide], the “Thrombin (human)/FXIIa alpha (human)” value in experiment [1] was “+++ (fold selectivity values greater than 100)”. Besides, the Ki in experiment [2] was below 200 nM. In experiment [3], the “FXa (human)/FXIIa alpha (human)” value was “∘∘∘”.

In the case of `Cc1ccc(C[C@@H]2C[C@@H](C(=O)NCc3ccc4[nH]ncc4c3)N(C(=O)[C@@H]3NCCC[C@@H]3C(=O)N3CCCC3)C2)cc1` [Example M05748, (2S,4R)-N-((1H-indazol-5-yl)methyl)-4-(4-methylbenzyl)-1-((2R,3S)-3-(pyrrolidine-1-carbonyl)piperidine-2-carbonyl)pyrrolidine-2-carboxamide], in experiment [1], the “Thrombin (human)/FXIIa alpha (human)” value is listed as “++ (a fold selectivity value of 10 to 100)”. The same molecule gave a Ki in experiment [2] of 800 to 5000 nM. In addition, the “FXa (human)/FXIIa alpha (human)” value in experiment [3] is “∘∘∘”.

With `COc1ccc(C[C@@H]2C[C@@H](C(=O)NCc3cc4cnccc4[nH]3)N(C(=O)[C@@H]3NCCC[C@@H]3C(=O)N3CCCC3)C2)cc1` [Example M00466, (2S,4R)-N-((1H-pyrrolo[3,2-c]pyridin-2-yl)methyl)-4-(4-mthoxybenzyl)-1-((2R,3S)-3-(pyrrolidine-1-carbonyl)piperidine-2-carbonyl)pyrrolidine-2-carboxamide], the “Thrombin (human)/FXIIa alpha (human)” value in experiment [1] is “+++ (fold selectivity values greater than 100)”. Further, in experiment [2], the Ki was below 200 nM. Besides, the “FXa (human)/FXIIa alpha (human)” value in experiment [3] is reported as “∘∘∘”.

For `Cc1ccc(C[C@@H]2C[C@@H](C(=O)NCCCn3ccnc3)N(C(=O)[C@@H]3NCCC[C@@H]3C(=O)N3CCC[C@@H]3C(F)(F)F)C2)cc1` [Example M06089], the “Thrombin (human)/FXIIa alpha (human)” value in experiment [1] is given as “+++ (fold selectivity values greater than 100)”. In addition, the inhibitory constant (Ki) in experiment [2] was in the range of 200 to 800 nM. Further, the “FXa (human)/FXIIa alpha (human)” value in experiment [3] is listed as “∘∘∘”.

As for `Cc1ccc(C[C@@H]2C[C@@H](C(=O)NCc3ccc4c(cnn4C)c3)N(C(=O)[C@@H]3NCCC[C@@H]3C(=O)N(C)C3CC3)C2)cc1` [Example M05752, (2R,3S)-N-cyclopropyl-N-methyl-2-((2S,4R)-2-(((1-methyl-1H-indazol-5-yl)methyl)carbamoyl)-4-(4-methylbenyl)pyrrolidine-1-carbonyl)piperidine-3-carboxamide], the “Thrombin (human)/FXIIa alpha (human)” value in experiment [1] is “++ (a fold selectivity value of 10 to 100)”. In experiment [2], this molecule yielded a Ki below 200 nM. Also, the “FXa (human)/FXIIa alpha (human)” value in experiment [3] is “∘∘∘”.

For the molecule `Cn1ncc2cc(CNC(=O)[C@@H]3C[C@@H](Cc4cccc(C(F)(F)F)c4)CN3C(=O)[C@@H]3NCCC[C@@H]3C(=O)N3CCCC3)ccc21` [Example M05836, (2S,4R)-N-((1-methyl-1H-indazol-5-yl)methyl)-1-((2R,3S)-3-(pyrrolidine-1-carbonyl)piperidine-2-carbonyl)-4-(3-(trifluoromethyl)benzyl)pyrrolidine-2-carboxamide], the “Thrombin (human)/FXIIa alpha (human)” value in experiment [1] is reported as “+++ (fold selectivity values greater than 100)”. This molecule gave a Ki in experiment [2] of 800 to 5000 nM. Besides, the “FXa (human)/FXIIa alpha (human)” value in experiment [3] is “∘∘∘”.

In the case of `Cc1ccc(C[C@@H]2C[C@@H](C(=O)NCc3ccc4c(cnn4C)c3)N(C(=O)[C@@H]3NCCC[C@@H]3C(=O)N(C)CCN3CC(F)(F)C3)C2)cc1` [Example M06129, (2R,3S)-N-(2-(3,3-difluoroazetidin-1-yl)ethyl)-N-methyl-2-((2S,4R)-2-(((1-methyl-1H-indazol-5-yl)methyl)carbamoyl)-4-(4-methylbenzyl)pyrrolidine-1-carbonyl)piperidine-3-carboxamide], the “Thrombin (human)/FXIIa alpha (human)” value in experiment [1] was “+++ (fold selectivity values greater than 100)”. This molecule also returned a Ki in experiment [2] below 200 nM. Further, the “FXa (human)/FXIIa alpha (human)” value in experiment [3] was “∘∘∘”.

Turning to `Cc1ccc(C[C@@H]2C[C@@H](C(=O)NCc3ccc4c(cnn4C)c3)N(C(=O)[C@@H]3NCCC[C@@H]3C(=O)N3CC(F)C3)C2)cc1` [Example M05878, (2S,4R)-1-((2R,3S)-3-(3-fluoroazetidine-1-carbonyl)piperidine-2-carbonyl)-N-((1-methyl-1H-indazol-5-yl)methyl)-4-(4-methylbenzyl)pyrrolidine-2-carboxamide], the “Thrombin (human)/FXIIa alpha (human)” value in experiment [1] was “+++ (fold selectivity values greater than 100)”. The Ki in experiment [2] is below 200 nM. Moreover, the “FXa (human)/FXIIa alpha (human)” value in experiment [3] was “∘∘∘”.

In the case of `Cc1ccc(C[C@@H]2C[C@@H](C(=O)NCc3ccc4c(cnn4C)c3)N(C(=O)[C@@H]3NCCC[C@@H]3C(=O)N3CCC4(CC3)CC4)C2)cc1` [Example M05775, (2S,4R)-1-((2R,3S)-3-(6-azaspiro[2.5]octane-6-carbonyl)piperidine-2-carbonyl)-N-((1-methyl-1H-indazol-5-yl)methyl)-4-(4-methylbenzyl)pyrrolidine-2-carboxamide], the “Thrombin (human)/FXIIa alpha (human)” value in experiment [1] is given as “++ (a fold selectivity value of 10 to 100)”. The molecule further gave a Ki in experiment [2] of 800 to 5000 nM. The “FXa (human)/FXIIa alpha (human)” value in experiment [3] is “∘∘∘”.

`Cc1ccc(C[C@@H]2C[C@@H](C(=O)NCc3ccc4c(cnn4C)c3)N(C(=O)[C@@H]3NCCC[C@@H]3C(=O)N3CCC4(CC4)C3)C2)cc1` [Example M05766, (2S,4R)-1-[(2R,3S)-3-(5-azaspiro[2.4]heptane-5-carbonyl)piperidine-2-carbonyl]-N-[(1-methylindazol-5-yl)methyl]-4-(p-tolylmethyl)pyrrolidine-2-carboxamide]: the “Thrombin (human)/FXIIa alpha (human)” value in experiment [1] is on record as “+++ (fold selectivity values greater than 100)”. In experiment [2], this molecule yielded a Ki below 200 nM. The “FXa (human)/FXIIa alpha (human)” value in experiment [3] is “∘∘∘”.

In the case of `Cc1ccc(C[C@@H]2C[C@@H](C(=O)NCC3CCn4c(C)nnc4C3)N(C(=O)[C@@H]3NCCC[C@@H]3C(=O)N3CCCC3)C2)cc1` (stereo partly drawn) [Example M05913, (2S,4R)-N-[(3-mthyl-5,6,7,8-tetrahydro-[1,2,4]triazolo[4,3-a]pyidin-7-yl)methyl]-4-(p-tolylmethyl)-1-[(2R,3S)-3-(pyrrolidine-1-carbonyl)piperidine-2-carbonyl]pyrrolidine-2-carboxamide], the “Thrombin (human)/FXIIa alpha (human)” value in experiment [1] is “+++ (fold selectivity values greater than 100)”. In experiment [2], this molecule returned a Ki of 200 to 800 nM. The “FXa (human)/FXIIa alpha (human)” value in experiment [3] is given as “∘∘∘”.

(Values after US20240294498A1, “FACTOR XIIA INHIBITORS” (Lunac Therapeutics Ltd, priority 2021, published 2024).)
